Measured values from US12594258B2, “Inhibitors of MHC-I Nef downmodulation for treating HIV” (priority 2019, dated 2026).

Legend:
[1] = tested on: AP-1:Nef:MHC-I complex; assay: HLA-A2 coimmunoprecipitation in CEM-A2 cells expressing Nef; type: cell-based; conditions: 1.25 nM, compared to NH4Cl
Description: Immunoprecipitation of CEM cell lysates with BB7.2-conjugated beads was performed as previously described. Briefly, 25×10^6 CEM-A2 cells were transduced with Nef-expressing or control adenovirus. 48 hours post-infection, cells were counted and resuspended at a density of 1×10^6 cells/mL R10 supplemented with 35 mM NH4Cl, 1.25 nM CMA, or solvent control for 24 hours. Cells were pelleted, washed twice in PBS, and lysed in 1% digitonin lysis buffer (1% digitonin (Wako, 043-21371), 100 mM NaCl, 50 mM Tris, pH 7.0, 1 mM CaCl2, and 1 mM MgCl2) as previously described. 1% of the lysate was removed for input controls. […] After pulldown, resin was washed five times in 0.1% digitonin wash buffer, and proteins were eluted by incubating in 150 mM dithiothreitol (Invitrogen) for 30 minutes at 37° C. and analyzed by western blot.
HLA-A2 Coimmunoprecipitation. […] Then, 48 h post infection, cells were counted and resuspended at a density of 1×10^6 cells per milliliter R10 supplemented with 35 mM NH4Cl, 1.25 nM CMA, or solvent control for 24 h. […] After pulldown, resin was washed five times in 0.1% digitonin wash buffer, and proteins were eluted by incubating in 150 mM dithiothreitol (DTT) for 30 min at 37° C. and analyzed by Western blot.

[2] = CMA concentration in mouse plasma and lymph nodes by mass spectrometry; type: in vivo, mice; conditions: 2 hours after the final dose
Description: (§1) FIG. 8A is a schematic representation of experiments for FIG. 8B-D. Five mice per group received injections of CMA every 2 days for 10 doses. Blood plasma and lymph nodes were harvested from mice sacrificed 2 hours after the final injection.
FIG. 8D is a summary graph of mass spectrometry data quantifying the concentration of CMA in blood plasma from mice in each Group A and Group B.
FIG. 8E is a summary graph of mass spectrometry data quantifying the concentration of CMA in lymph nodes from mice in each Group A and Group B. Points represent the 5 individual mice within each group. LOD=limit of detection. Open circles represent samples with CMA below the limit of detection.
(§2) Mouse in vivo Assays. To further examine the tolerability of CMA, preliminary studies were performed in two groups of mice injected with different doses of CMA every other day for 18 days (FIG. 8A). […] In a separate experiment, plasma harvested from treated mice inhibited Nef in our in vitro assay (FIG. 8F). Taken together, these promising preliminary studies provide evidence that CMA is both efficacious and tolerable in vivo.

[3] = tested on: HIV Nef
[4] = tested on: CD4+ T cells; assay: Cell cycle analysis of CD4+ T cells; type: cell-based, human; conditions: 0.5 nM
[5] = Mouse in vivo tolerability; parameters: species or system mice
Description: as §1, §2

[6] = tested on: Nef alleles from HIV clades A, B, C, D, F, and F/B and SIV; assay: Nef alleles of diverse HIV clades and SIV (MSCV-IRES-GFP) in CEM cells expressing MHC-I alleles; type: cell-based
Description: (ii) MSCV: Murine stem cell virus internal ribosome entry site GFP (pMIG) constructs containing various nef alleles were generated as previously described. Retroviral supernatants were prepared using BOSC cells transfected with the pMIG constructs, the retrovirus packaging vector pCL-Eco (65) and pHCMV-G using PEI as described above for HIV. Viral supernatants were collected 48 h post-transfection, clarified by centrifugation, stored at −80° C., and transductions were performed as described for HIV constructs.

[7] = tested on: AP-1:Nef:MHC-I complex; assay: GST-tagged MHC-I cytoplasmic tail pull down assay; type: binding
Excerpt: The His6- and GST-tagged AP-1 core, mouse AP1M1 (157-423) (referred as μ1-CTD), human Arf1 (17-181)-Q71L, human MHC-I (338-365)-NL4-3 Nef, HIV-1 NL4-3 Nef constructs and protein purification were previously described. For GST pull down assay, codon-optimized human MHC-I (338-365) was subcloned into pGST parallel2 vector using BamHI/Xhol sites, fused an N-terminal GST tag and a TEV cleavage site. PCR encoding HIV-1 Nef or SlVsmm Nef fused with GFP was subcloned into LIC 2BT vector (Macrolab), expressed as a TEV-cleavable N-terminal His6 tag and C-terminal uncleavable GFP tag.
GST tagged MHC-I tail was expressed in BL21 (DE3) star cells by induction at 20° C. overnight. The purification was carried out using glutathione-Sepharose 4B resin, the elution was then subjected to a HiLoad 16/60 Superdex 75 column in the buffer of 20 mM Tris pH 8, 150 mM NaCl, 0.1 mM TCEP.

[8] = tested on: primary CD4+ T cells; assay: MTT and flow cytometric viability assays in primary CD4+ T cells; type: cell-based, human
Description: CD4^+ T cells were plated at a density of 1×10^5 cells in 200 μL R10-50 in flat-bottom 96-well plates 4 days post-stimulation with PHA. Cells were exposed to titrations of plecomacrolides or solvent controls for 72 hours in culture, at which point viability was assessed relative to solvent by MTT assay in experimental duplicates. Equal volumes of cell culture medium containing CD4^+ T cells were pelleted in 96-well round-bottom plates and incubated in 4.5 mg/mL MTT (Fisher, M6494) in R10 with no Phenol Red at 37° C. until the purple formazan signal was clearly visible. The absorbance of cell pellets resuspended in DMSO was measured at 595 nm on a Molecular Devices Emax precision microplate reader and compared a standard curve of known viable cell numbers to ensure the experimental samples fell within the linear range of the assay.

## C/C=C/[C@H]1O[C@@](O)([C@@H](C)[C@H](O)[C@H](C)[C@H]2OC(=O)/C(OC)=C/C(C)=C/[C@@H](C)[C@@H](O)[C@@H](CC)[C@@H](O)[C@H](C)C/C(C)=C/C=C/[C@@H]2OC)C[C@@H](O[C@H]2C[C@@H](O)[C@H](OC(N)=O)[C@@H](C)O2)[C@@H]1C [CMA, concanamycin A]
[1]
  abundance of Nef and AP-1 subunits associating with HLA-A2: […]
[2]
  drug concentrations in plasma and lymph nodes: […]
[3]; 0.25 nM, 24 hours
  MHC-I expression (BB7.2 and Bw4/Bw6) in cells infected with primary isolate 454Gag-GFP: […]
[3]; 0.5 nM, 24-h incubation, primary CD4+ T cells
  suppression of Nef activity: […]
[3]; cells infected with ΔGPE
  downmodulation of HLA-B*51:01 and HLA-B*07:02: […]
[3]; read-out: EC50 for Nef inhibition, HIV-infected primary CD4+ T cells, HLA-A2
  EC50: […]
[4]
  decrease in cells in G2/M: not statistically significant
[5]; two doses, injected every other day for 18 days
  toxicity based on behavior, fur and weight loss: Neither dose showed toxicity
[5]; weighed prior to each dose
  body mass: no loss in body mass and no dose effect
[6]; CEM cells, each Nef allele
  surface expression of HA-tagged HLA-A*02, HLA-B*08, HLA-B*27, HLA-B*57: restored MHC-I surface expression in every context
[6]; CEM-A2 cells
  HLA-A2 expression in cells expressing diverse nef alleles: restored expression of HLA-A2 in cells expressing each nef allele
[7]
  pulldown of NL4-3 Nef, SIV Nef or AP-1 μ1-CTD by GST-tagged MHC-I cytoplasmic tail: did not alter pulldown
[8]; 0.5 nM, 24-h incubation
  viability: 95%
[8]; Nef activity 24 hours, viability 72 hours
  difference between the 50% effective and toxic concentrations (EC50 and TC50): […]
